Laboratory results taken from patent US12365696B2, “Small-molecule focal adhesion kinase (FAK) inhibitors” (DANA-FARBER CANCER INSTITUTE, INC., priority 2019, dated 2025).

Tests used:
MDA-MB-231 cells = assay: 2D-adherent monolayer cell viability (Cell Titer-Glo), 120 hrs; format: cell-based; details: Homo sapiens
Method: For 2D-adherent monolayer experiments, MDA-MB-231 cells were plated in 384-well format and allowed to adhere overnight. Cells were treated with indicated molecules from compound stock plates using a JANUS® Workstation pin tool for 120 hrs. To measure cell viability, Cell Titer-Glo® was added to wells for 15 minutes at room temperature and luminescence was measured on an EnVision™ 2104 Multilabel Plate Reader.
Inventive compound treatment (0.00063-20 μM) led to antiproliferative effects in MDA-MB-231 cells cultured as 2D-adherent monolayers or as ultra-low adherent 3D-spheroid suspensions (Table 5).

MRCKA = MRCKA (Homo sapiens (Human), UniProt Q5VT25); assay: KINOMEscan; format: binding; details: 10000 nM, read-out: Percent Control
AURKA = AURKA (Homo sapiens (Human), UniProt O14965); assay: KINOMEscan; format: binding; details: 10000 nM, read-out: Percent Control
VEGFR2 = VEGFR2 (Homo sapiens (Human), UniProt P35968); assay: KINOMEscan; format: binding; details: VEGFR2, 10000 nM; read-out: Percent Control
VEGFR2, sequence (P35968 20-1356): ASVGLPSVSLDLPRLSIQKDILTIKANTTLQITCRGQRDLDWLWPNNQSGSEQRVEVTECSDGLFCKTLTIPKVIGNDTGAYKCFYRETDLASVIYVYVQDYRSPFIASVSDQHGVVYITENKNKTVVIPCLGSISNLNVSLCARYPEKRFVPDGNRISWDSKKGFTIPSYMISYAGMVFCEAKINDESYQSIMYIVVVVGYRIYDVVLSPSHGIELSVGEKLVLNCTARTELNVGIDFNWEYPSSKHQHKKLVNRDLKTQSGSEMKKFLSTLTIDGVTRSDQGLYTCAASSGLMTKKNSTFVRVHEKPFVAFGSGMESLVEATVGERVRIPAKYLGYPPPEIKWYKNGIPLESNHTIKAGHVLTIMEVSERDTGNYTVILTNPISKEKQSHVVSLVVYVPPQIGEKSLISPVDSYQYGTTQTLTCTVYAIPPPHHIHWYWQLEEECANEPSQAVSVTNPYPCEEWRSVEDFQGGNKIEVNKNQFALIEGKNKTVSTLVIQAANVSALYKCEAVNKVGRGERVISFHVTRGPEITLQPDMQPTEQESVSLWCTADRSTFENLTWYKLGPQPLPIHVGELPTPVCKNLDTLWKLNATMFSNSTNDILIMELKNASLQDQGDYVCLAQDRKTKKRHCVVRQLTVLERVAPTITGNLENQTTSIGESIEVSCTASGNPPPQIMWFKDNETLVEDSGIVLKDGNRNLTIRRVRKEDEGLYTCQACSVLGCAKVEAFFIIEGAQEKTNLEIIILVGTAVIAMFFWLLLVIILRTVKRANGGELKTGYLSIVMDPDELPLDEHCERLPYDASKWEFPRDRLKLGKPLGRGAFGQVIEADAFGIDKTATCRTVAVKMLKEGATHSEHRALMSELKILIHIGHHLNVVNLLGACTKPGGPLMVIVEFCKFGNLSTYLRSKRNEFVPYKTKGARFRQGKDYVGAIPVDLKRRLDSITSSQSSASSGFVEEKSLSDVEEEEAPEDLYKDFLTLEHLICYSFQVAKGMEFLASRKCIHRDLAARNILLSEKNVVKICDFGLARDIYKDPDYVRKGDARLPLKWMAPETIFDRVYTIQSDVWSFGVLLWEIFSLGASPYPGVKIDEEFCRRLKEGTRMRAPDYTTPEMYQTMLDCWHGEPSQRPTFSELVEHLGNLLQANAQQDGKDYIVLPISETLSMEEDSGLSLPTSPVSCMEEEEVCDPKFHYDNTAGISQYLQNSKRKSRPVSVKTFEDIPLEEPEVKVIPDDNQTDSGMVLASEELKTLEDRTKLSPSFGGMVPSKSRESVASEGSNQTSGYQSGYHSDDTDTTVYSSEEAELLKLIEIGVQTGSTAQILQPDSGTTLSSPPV

FES = FES (Homo sapiens (Human), UniProt P07332); assay: KINOMEscan; format: binding; details: 10000 nM, read-out: Percent Control
PIM3 = PIM3 (Homo sapiens (Human), UniProt Q86V86); assay: KINOMEscan; format: binding; details: PIM3, 10000 nM; read-out: Percent Control
MAP4K5 = MAP4K5 (Homo sapiens (Human), UniProt Q9Y4K4); assay: KINOMEscan; format: binding; details: MAP4K5, 10000 nM; read-out: Percent Control
MAP4K5, sequence (Q9Y4K4 whole entry): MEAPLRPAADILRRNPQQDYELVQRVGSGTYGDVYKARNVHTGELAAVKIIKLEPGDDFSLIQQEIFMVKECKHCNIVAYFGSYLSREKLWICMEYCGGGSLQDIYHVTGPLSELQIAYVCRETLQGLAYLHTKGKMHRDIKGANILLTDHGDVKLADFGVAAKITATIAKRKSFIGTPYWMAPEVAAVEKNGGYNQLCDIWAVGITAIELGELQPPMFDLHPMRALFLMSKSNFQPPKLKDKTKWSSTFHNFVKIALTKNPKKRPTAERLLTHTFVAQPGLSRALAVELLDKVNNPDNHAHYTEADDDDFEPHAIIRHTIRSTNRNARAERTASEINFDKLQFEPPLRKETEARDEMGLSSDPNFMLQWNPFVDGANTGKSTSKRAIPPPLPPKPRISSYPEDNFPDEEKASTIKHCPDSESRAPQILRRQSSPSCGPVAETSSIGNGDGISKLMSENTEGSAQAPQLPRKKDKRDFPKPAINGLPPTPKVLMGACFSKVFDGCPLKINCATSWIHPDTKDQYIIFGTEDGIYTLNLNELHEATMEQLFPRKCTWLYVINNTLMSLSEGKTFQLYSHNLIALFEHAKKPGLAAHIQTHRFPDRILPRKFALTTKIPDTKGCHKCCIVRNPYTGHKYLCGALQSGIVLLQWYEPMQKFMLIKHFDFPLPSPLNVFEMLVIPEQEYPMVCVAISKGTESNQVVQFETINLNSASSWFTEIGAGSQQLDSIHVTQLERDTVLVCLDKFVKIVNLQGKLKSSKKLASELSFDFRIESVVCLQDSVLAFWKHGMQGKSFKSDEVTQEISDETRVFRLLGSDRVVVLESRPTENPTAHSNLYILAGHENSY

JNK3 = JNK3 (Homo sapiens (Human), UniProt P53779); assay: KINOMEscan; format: binding; details: JNK3, 10000 nM; read-out: Percent Control
ALK = ALK (Homo sapiens (Human), UniProt Q9UM73); assay: KINOMEscan; format: binding; details: 10000 nM, read-out: Percent Control
CAMK1G = CAMK1G (Homo sapiens (Human), UniProt Q96NX5); assay: KINOMEscan; format: binding; details: 10000 nM, read-out: Percent Control
ULK1 = ULK1 (Homo sapiens (Human), UniProt O75385); assay: KINOMEscan; format: binding; details: ULK1, 10000 nM; read-out: Percent Control
DLK = DLK (Homo sapiens (Human), UniProt Q12852); assay: KINOMEscan; format: binding; details: 10000 nM, read-out: Percent Control
PIK3CA(H1047Y) = PIK3CA(H1047Y) (Homo sapiens (Human), UniProt P42336, H1047Y); assay: KINOMEscan; format: binding; details: 10000 nM, read-out: Percent Control
PLK3 = PLK3 (Homo sapiens (Human), UniProt Q9H4B4); assay: KINOMEscan; format: binding; details: PLK3, 10000 nM; read-out: Percent Control
PRKG2 = PRKG2 (Homo sapiens (Human), UniProt Q13237); assay: KINOMEscan; format: binding; details: PRKG2, 10000 nM; read-out: Percent Control
PAK1 = PAK1 (Homo sapiens (Human), UniProt Q13153); assay: KINOMEscan; format: binding; details: PAK1, 10000 nM; read-out: Percent Control
GSK3B = GSK3B (Homo sapiens (Human), UniProt P49841); assay: KINOMEscan; format: binding; details: 10000 nM, read-out: Percent Control
YANK3 = YANK3 (Homo sapiens (Human), UniProt Q86UX6); assay: KINOMEscan; format: binding; details: YANK3, 10000 nM; read-out: Percent Control
EGFR(L747-T751del, Sins) = EGFR(L747-T751del, Sins) (Homo sapiens (Human), UniProt P00533, DEL747-751/INS746S); assay: KINOMEscan; format: binding; details: 10000 nM, read-out: Percent Control
SGK2 = SGK2 (Homo sapiens (Human), UniProt Q9HBY8); assay: KINOMEscan; format: binding; details: SGK2, 10000 nM; read-out: Percent Control
SGK2, sequence (Q9HBY8 whole entry): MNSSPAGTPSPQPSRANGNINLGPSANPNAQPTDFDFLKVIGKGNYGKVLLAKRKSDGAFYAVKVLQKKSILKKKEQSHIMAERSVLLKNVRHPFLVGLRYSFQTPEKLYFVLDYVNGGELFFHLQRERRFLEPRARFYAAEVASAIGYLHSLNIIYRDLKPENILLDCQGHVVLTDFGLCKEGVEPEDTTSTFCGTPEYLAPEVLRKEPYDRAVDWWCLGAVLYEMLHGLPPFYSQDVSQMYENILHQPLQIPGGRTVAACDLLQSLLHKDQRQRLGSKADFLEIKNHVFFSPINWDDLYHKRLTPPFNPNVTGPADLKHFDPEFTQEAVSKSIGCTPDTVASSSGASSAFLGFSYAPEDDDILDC

PIKFYVE = PIKFYVE (Homo sapiens (Human), UniProt Q9Y2I7); assay: KINOMEscan; format: binding; details: 10000 nM, read-out: Percent Control
CAMK1B = CAMK1B (Homo sapiens (Human), UniProt Q6P2M8); assay: KINOMEscan; format: binding; details: 10000 nM, read-out: Percent Control
MAP3K15 = MAP3K15 (Homo sapiens (Human), UniProt Q6ZN16); assay: KINOMEscan; format: binding; details: MAP3K15, 10000 nM; read-out: Percent Control
[1] = biological target: EGFR(L747-S752del, P753S) (Homo sapiens (Human), UniProt P00533, DEL747-752/P753S); assay: KINOMEscan; format: binding; details: 10000 nM, read-out: Percent Control
IRAK4 = IRAK4 (Homo sapiens (Human), UniProt Q9NWZ3); assay: KINOMEscan; format: binding; details: IRAK4, 10000 nM; read-out: Percent Control
IRAK4, sequence (Q9NWZ3 whole entry): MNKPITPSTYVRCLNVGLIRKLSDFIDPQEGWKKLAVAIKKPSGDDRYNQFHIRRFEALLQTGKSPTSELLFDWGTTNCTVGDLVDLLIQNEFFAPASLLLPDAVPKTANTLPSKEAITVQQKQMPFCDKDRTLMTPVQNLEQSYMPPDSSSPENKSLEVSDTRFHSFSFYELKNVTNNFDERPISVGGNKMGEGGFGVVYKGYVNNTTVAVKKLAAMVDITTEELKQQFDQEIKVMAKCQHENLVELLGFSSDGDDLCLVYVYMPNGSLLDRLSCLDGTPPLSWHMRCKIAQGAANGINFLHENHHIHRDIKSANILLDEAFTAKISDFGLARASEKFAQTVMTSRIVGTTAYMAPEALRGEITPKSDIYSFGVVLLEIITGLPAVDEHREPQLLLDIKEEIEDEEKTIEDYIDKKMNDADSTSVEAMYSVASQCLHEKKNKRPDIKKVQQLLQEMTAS

ASK2 = ASK2 (Homo sapiens (Human), UniProt O95382); assay: KINOMEscan; format: binding; details: ASK2, 10000 nM; read-out: Percent Control
ASK2, sequence (O95382 whole entry): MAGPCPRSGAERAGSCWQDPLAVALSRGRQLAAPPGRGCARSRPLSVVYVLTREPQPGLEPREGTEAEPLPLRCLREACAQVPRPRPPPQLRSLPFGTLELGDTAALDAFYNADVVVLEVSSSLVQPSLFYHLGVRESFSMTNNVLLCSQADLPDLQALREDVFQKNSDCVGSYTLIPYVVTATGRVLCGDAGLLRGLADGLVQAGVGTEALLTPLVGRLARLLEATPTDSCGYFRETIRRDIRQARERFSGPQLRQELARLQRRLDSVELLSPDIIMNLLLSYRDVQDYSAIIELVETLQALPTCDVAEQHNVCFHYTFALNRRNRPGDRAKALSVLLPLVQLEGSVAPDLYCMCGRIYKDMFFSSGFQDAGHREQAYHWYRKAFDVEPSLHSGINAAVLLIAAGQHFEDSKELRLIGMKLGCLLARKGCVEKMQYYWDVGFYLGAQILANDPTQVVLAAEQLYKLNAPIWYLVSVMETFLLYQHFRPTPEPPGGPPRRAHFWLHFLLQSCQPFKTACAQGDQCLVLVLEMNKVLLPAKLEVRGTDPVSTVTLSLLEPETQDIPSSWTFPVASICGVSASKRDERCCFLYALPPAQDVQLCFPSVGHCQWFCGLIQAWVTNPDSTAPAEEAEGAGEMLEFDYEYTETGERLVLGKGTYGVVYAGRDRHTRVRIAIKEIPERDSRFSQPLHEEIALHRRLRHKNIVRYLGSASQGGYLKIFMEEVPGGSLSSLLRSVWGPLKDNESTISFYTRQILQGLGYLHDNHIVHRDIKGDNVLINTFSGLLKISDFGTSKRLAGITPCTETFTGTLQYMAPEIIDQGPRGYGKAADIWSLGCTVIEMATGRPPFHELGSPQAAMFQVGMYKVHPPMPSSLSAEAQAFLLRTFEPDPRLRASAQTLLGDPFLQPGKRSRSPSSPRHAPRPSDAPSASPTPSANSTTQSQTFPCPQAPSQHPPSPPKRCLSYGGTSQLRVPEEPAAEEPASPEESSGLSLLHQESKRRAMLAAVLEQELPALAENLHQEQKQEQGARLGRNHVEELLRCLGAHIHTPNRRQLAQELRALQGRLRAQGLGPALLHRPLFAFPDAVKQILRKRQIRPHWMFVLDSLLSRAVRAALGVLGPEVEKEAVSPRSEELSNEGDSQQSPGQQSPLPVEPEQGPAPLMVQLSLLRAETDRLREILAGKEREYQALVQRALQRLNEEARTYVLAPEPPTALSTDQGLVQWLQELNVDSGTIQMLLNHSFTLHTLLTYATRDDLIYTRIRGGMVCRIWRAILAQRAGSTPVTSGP

ICK = ICK (Homo sapiens (Human), UniProt Q9UPZ9); assay: KINOMEscan; format: binding; details: 10000 nM, read-out: Percent Control
ICK, sequence (Q9UPZ9 whole entry): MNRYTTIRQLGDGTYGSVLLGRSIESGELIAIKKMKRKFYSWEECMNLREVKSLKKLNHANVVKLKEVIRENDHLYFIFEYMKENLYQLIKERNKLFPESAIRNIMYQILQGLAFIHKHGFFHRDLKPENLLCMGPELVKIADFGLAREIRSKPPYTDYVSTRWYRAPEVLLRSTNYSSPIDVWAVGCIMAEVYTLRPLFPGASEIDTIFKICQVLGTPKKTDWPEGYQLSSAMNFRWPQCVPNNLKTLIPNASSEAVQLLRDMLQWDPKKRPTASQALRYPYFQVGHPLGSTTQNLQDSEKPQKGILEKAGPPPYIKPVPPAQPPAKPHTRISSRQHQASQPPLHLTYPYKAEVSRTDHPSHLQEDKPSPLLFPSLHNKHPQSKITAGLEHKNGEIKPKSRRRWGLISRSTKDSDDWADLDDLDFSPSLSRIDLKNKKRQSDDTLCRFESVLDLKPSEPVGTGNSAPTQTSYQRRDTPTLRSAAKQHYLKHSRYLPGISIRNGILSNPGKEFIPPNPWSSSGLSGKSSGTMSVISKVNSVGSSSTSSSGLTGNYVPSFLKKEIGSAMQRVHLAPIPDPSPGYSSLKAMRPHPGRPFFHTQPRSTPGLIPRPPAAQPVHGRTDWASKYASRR

FLT3(ITD, F691L) = assay: KINOMEscan; format: binding; details: 10000 nM
FGFR3 = FGFR3 (Homo sapiens (Human), UniProt P22607); assay: KINOMEscan; format: binding; details: FGFR3, 10000 nM; read-out: Percent Control
CSNK1G3 = CSNK1G3 (Homo sapiens (Human), UniProt Q9Y6M4); assay: KINOMEscan; format: binding; details: CSNK1G3, 10000 nM; read-out: Percent Control
SLK = SLK (Homo sapiens (Human), UniProt Q9H2G2); assay: KINOMEscan; format: binding; details: 10000 nM, read-out: Percent Control
LOK = LOK (Homo sapiens (Human), UniProt O94804); assay: KINOMEscan; format: binding; details: 10000 nM, read-out: Percent Control
ZAK = ZAK (Homo sapiens (Human), UniProt Q9NYL2); assay: KINOMEscan; format: binding; details: 10000 nM, read-out: Percent Control

| SMILES | IC50 (MDA-MB-231 cells) [µM] | remaining binding at 10 µM (MRCKA) [%] | remaining binding at 10 µM (AURKA) [%] | remaining binding at 10 µM (VEGFR2) [%] | remaining binding at 10 µM (FES) [%] | remaining binding at 10 µM (PIM3) [%] | remaining binding at 10 µM (MAP4K5) [%] | remaining binding at 10 µM (JNK3) [%] | remaining binding at 10 µM (ALK) [%] | remaining binding at 10 µM (CAMK1G) [%] | remaining binding at 10 µM (ULK1) [%] | remaining binding at 10 µM (DLK) [%] | remaining binding at 10 µM (PIK3CA(H1047Y)) [%] | remaining binding at 10 µM (PLK3) [%] | remaining binding at 10 µM (PRKG2) [%] | remaining binding at 10 µM (PAK1) [%] | remaining binding at 10 µM (GSK3B) [%] | remaining binding at 10 µM (YANK3) [%] | remaining binding at 10 µM (EGFR(L747-T751del, Sins)) [%] | remaining binding at 10 µM (SGK2) [%] | further results |
| --- | --- | --- | --- | --- | --- | --- | --- | --- | --- | --- | --- | --- | --- | --- | --- | --- | --- | --- | --- | --- | --- |
| COc1cc(N2CCC(N3CCN(C)CC3)CC2)ccc1Nc1ncc2c(n1)N(C)c1sc(C)nc1C(=O)N2 [Compound 3, 6-((2-methoxy-4-(4-(4-methylpiperazin-1-yl)piperidin-1-yl)phenyl)amino)-2,4-dimethyl-4,9-dihydro-10H-pyrimido[5,4-b]thiazolo[5,4-e][1,4]diazepin-10-one] | > 10 | 98 | 92 | 100 | 81 | 70 | 82 | 100 | 100 | 74 | 100 | 90 | 91 | 52 | 73 | 64 | 95 | 68 | 52 | 99 | remaining binding at 10 µM (PIKFYVE): 98%; remaining binding at 10 µM (CAMK1B): 95%; remaining binding at 10 µM (MAP3K15): 90%; remaining binding at 10 µM [1]: 99%; remaining binding at 10 µM (IRAK4): 100%; remaining binding at 10 µM (ASK2): 100%; remaining binding at 10 µM (ICK): 100%; Percent Control (FLT3(ITD, F691L)): 100%; remaining binding at 10 µM (FGFR3): 92%; remaining binding at 10 µM (CSNK1G3): 87%; remaining binding at 10 µM (SLK): 70%; remaining binding at 10 µM (LOK): 84%; remaining binding at 10 µM (ZAK): 92% |
| COc1cc(N2CCC(N3CCN(C)CC3)CC2)ccc1Nc1ncc2c(n1)N(C)c1sc(C)nc1C(=O)N2C [Compound 5, 6-((2-methoxy-4-(4-(4-methylpiperazin-1-yl)piperidin-1-yl)phenyl)amino)-2,4,9-trimethyl-4,9-dihydro-10H-pyrimido[5,4-b]thiazolo[5,4-e][1,4]diazepin-10-one] | 7.6 | 84 | 78 | 95 | 97 | 100 | 91 | 97 | 99 | 95 | 98 | 86 | 100 | 20 | 100 | 92 | 99 | 98 | 100 | 98 | remaining binding at 10 µM (PIKFYVE): 60%; remaining binding at 10 µM (CAMK1B): 92%; remaining binding at 10 µM (MAP3K15): 84%; remaining binding at 10 µM [1]: 91%; remaining binding at 10 µM (IRAK4): 88%; remaining binding at 10 µM (ASK2): 100%; remaining binding at 10 µM (ICK): 100%; Percent Control (FLT3(ITD, F691L)): 93%; remaining binding at 10 µM (FGFR3): 98%; remaining binding at 10 µM (CSNK1G3): 100%; remaining binding at 10 µM (SLK): 100%; remaining binding at 10 µM (LOK): 99%; remaining binding at 10 µM (ZAK): 100% |
